One molecule from patent US20020002294A1, “Estrogenic compounds as antiangiogenic agents” (priority 1997, published 2002) can be followed below.

Each structure is given as a SMILES string.

One assay concerns CNS cell lines. The assay can be described thus: Human Tumor Cell Panel Assay in vitro, CNS panel. The format is cell-based. Also noted: key: Most sensitive cell panes are marked with ✓. An excerpt: The tubulin activities, breast cancer cell line activities, and the cell panels most sensitive to selected analogs are shown in Tables 3 and 4.
Assay [1] deals with corneal neovascularization. The assay can be described thus: Mouse Corneal Micropocket Assay. Type of assay: in vivo, mice. As to conditions: 150 mg/kg, daily oral, 5 days. As to the method: Five- to 7-week-old SCID female mice were obtained from Massachusetts General Hospital (Boston, Mass.), Immunocompetent 7-9-week-old female C57BL/6 mice were obtained from ARCH Technical Services, Children's Hospital (Boston, Mass.). All animal studies were conducted according to protocols approved by the Animal Ethics Committee of Children's Hospital. Animals were anesthetized in a methoxyflurane (Pittman-Moore, Mundelein, Ill.) chamber prior to all procedures and were observed until fully recovered. Animals were sacrificed by a lethal dose of methoxyflurane.
Mouse Corneal Micropocket Assay To study the effect of microtubule inhibitors on angiogenesis in vivo, a model of angiogenesis in the mouse cornea was used in […] mice as described previously (Kenyon, B. B., Voest, E. E., Chen, C. C., Folkman, J., and D'Amato, R. J. A model of angiogenesis in the mouse cornea. Invest. Ophthalmol. & Visual Sci., 76: 1625-1632, 1996). In brief, after animals were anesthetized, corneal micropockets were created in both eyes with a modified von Graefe cataract knife. Into each pocket, a 0.4 mm ×0.4 mm×0.2 mm sucrose aluminum sulfate (Bukh Meditee, Copenhagen, Denmark) pellet coated with hydron polymer type NCC (IHN Sciences, New Brunswick, N.J.) containing 80 ng of bFGF or 160 ng of human recombinant […] (gift from Reprogenesis, Cambridge, Mass.) was implanted 1.0-1.2 mm from the limbal vessels (bFGF experiments) or 0.5-0.7 mm from the limbus (VEGF experiments). Erythromycin ointment (E. Fougera, Melville, N.Y.) was applied to each operated eye. The sucralfate acts to stabilize the growth factor and to slow its release from the hydron. Before testing each drug in this assay, we found the maximal dose that could be administered daily for 5 consecutive days without producing signs of toxicity (i.e., no hair loss, diarrhea, infection, lethargy, or weight loss). The treated groups received daily oral administration for 5 consecutive days of the stated dosage of 2-ME or a derivative thereof suspended in 0.5 g/100 ml of carboxymethylcellulose.
Treatment was started on the day of pellet implantation. […] For this purpose, the eyes of the mice were examined by slit-lamp biomicroscopy. Area of corneal neovascularization was calculated using a modified formula for a half-ellipse: Area (mm^2)=[π×clock hours×length (mm)×0.2 mm]. This formula provides the most accurate approximation of the area of neovascularization that grows toward the pellet. (Kenyon, B. B., Voest, E. E., Chen, C. C., Folkman, J., and D'Amato, R. J. A model of angiogenesis in the mouse cornea. Invest. Ophthalmol. & Visual Sci., 76: 1625-1632, 1996).

Turning to `COc1cc2c(cc1O)CCC1C2CCC2(C)C(O)CCC12` (centres unmarked) [NSC 659853, 2-Methoxyestradiol], the “Most Sensitive Cell Lines in Human Tumor Cell Panel Assay: CNS” value with CNS cell lines is given as “✓”. The “inhibition in corneal pocket assay” value in assay [1] was determined as 25%.
